Like-named read-outs stand apart in the source and are kept apart here.
Tests used:
human orexin 2 receptor = human orexin 2 receptor (Homo sapiens (Human), UniProt O43614); assay: Human orexin 2 receptor radioligand binding (competitive, [3H]-EMPA, HEK293 cell preparations)
human orexin 1 receptor = human orexin 1 receptor (Homo sapiens (Human), UniProt O43613); assay: Human orexin 1 receptor radioligand binding (competitive, [3H]-SB674042, CHO cell preparations)
rat orexin 1 receptor = rat orexin 1 receptor (Rattus norvegicus, UniProt P56718); assay: Rat orexin 1 receptor radioligand binding (competitive, [3H]-SB674042, HEK293 cell preparations)
[1] = human orexin 2 receptor, [3H]-EMPA competition binding, read-out: hOX2 Ki (nm)
[2] = human orexin 1 receptor, [3H]-SB674042 competition binding, read-out: hOX1 Ki (nm)
[3] = rat orexin 1 receptor, [3H]-SB674042 competition binding, read-out: rOX1 Ki (nm)

human orexin 1 receptor, sequence (O43613 whole entry): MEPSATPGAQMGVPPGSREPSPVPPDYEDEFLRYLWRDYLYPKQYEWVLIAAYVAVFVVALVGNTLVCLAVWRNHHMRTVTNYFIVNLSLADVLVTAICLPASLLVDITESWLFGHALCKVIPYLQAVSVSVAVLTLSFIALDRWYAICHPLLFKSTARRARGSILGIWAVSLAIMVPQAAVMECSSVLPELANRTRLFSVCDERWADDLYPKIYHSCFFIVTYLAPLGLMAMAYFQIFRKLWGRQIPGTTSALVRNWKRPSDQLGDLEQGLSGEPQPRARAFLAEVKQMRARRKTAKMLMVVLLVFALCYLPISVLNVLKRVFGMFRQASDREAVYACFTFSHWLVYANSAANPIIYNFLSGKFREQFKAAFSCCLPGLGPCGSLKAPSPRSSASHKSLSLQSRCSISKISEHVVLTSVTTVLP
human orexin 2 receptor, sequence (O43614 whole entry): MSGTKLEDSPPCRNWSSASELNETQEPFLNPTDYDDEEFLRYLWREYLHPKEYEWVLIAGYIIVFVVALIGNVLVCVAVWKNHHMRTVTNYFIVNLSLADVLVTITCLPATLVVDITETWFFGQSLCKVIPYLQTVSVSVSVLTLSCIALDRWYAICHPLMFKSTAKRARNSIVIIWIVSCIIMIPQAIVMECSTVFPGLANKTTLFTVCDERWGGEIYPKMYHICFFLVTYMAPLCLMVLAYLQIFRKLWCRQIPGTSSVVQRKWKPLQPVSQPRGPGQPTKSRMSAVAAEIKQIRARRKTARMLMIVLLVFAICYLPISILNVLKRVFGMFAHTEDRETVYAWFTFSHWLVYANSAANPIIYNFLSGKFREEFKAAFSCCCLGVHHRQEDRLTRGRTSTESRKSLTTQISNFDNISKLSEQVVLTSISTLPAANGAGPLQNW

SMILES	Ki (human orexin 2 receptor; [1])	Ki (human orexin 1 receptor; [2])	Ki (rat orexin 1 receptor; [3])	Ki (human orexin 1 receptor; hOX1 Ki (nm))	Ki (rat orexin 1 receptor; rOX1 Ki (nm))	Ki (human orexin 1 receptor; read-out: hOX1 Ki (nm))	Ki (rat orexin 1 receptor; read-out: rOX1 Ki (nm))	Ki (human orexin 2 receptor; hOX2 Ki (nm))
O=C(c1cc(CO)ccc1-n1nccn1)N1C2CCC1C(COc1ccc(F)cn1)C2 (racemic) [Example 126, (±)-(2-(((5-fluoropyridin-2-yl)oxy)methyl)-7-azabicyclo[2.2.1]heptan-7-yl)(5-(hydroxymethyl)-2-(2H-1,2,3-triazol-2-yl)phenyl)methanone]	0.231 µM	0.027 µM	0.023 µM					
CCOc1ncc(Br)cc1C(=O)N1C2CCC1C(COc1ccccn1)C2 (racemic) [Example 157, (±)-(5-bromo-2-ethoxypyridin-3-yl)(2-((pyridin-2-yloxy)methyl)-7-azabicyclo[2.2.1]heptan-7-yl)methanone]	0.537 µM			0.134 µM	0.094 µM			
CCOc1ccnc(OCC)c1C(=O)N1C2CCC1C(COc1ccccn1)C2 (racemic) [Example 163, (±)-(2,4-diethoxypyridin-3-yl)(2-((pyridin-2-yloxy)methyl)-7-azabicyclo[2.2.1]heptan-7-yl)methanone]	0.15 µM	0.153 µM	0.15 µM					
Cc1ccc(-n2nccn2)c(C(=O)N2C3CCC2C(COc2ncccc2C)C3)n1 (racemic) [Example 176, (±)-(6-methyl-3-(2H-1,2,3-triazol-2-yl)pyridin-2-yl)(2-(((3-methylpyridin-2-yl)oxy)methyl)-7-azabicyclo[2.2.1]heptan-7-yl)methanone]	0.202 µM					0.15 µM	0.119 µM	
Cc1cnc(C(=O)N2C3CCC2C(Nc2cnc(C(F)(F)F)cn2)C3)c(-n2nccn2)c1 (racemic) [Example 184, (±)-(5-methyl-3-(2H-1,2,3-triazol-2-yl)pyridin-2-yl)(2-(5-(trifluoromethyl)pyrazin-2-yl)amino)-7-azabicyclo[2.2.1]heptan-7-yl)methanone]		0.349 µM	0.189 µM					4.1 µM
Cc1ccc(-n2nccn2)c(C(=O)N2C3CCC2C(Nc2cnc(C(F)(F)F)cn2)C3)n1 (racemic) [Example 186, (±)-(6-methyl-3-(2H-1,2,3-triazol-2-yl)pyridin-2-yl)(2-(5-(trifluoromethyl)pyrazin-2-yl)amino)-7-azabicyclo[2.2.1]heptan-7-yl)methanone]				0.164 µM	0.134 µM			1.2 µM
O=C(c1cccc(F)c1-c1ncccn1)N1C2CCC1C(Nc1ccc(C(F)(F)F)cn1)C2 (racemic) [Example 192, (±)-(3-fluoro-2-(pyrimidin-2-yl)phenyl)(2-((5-(trifluoromethyl)pyridin-2-yl)amino)-7-azabicyclo[2.2.1]heptan-7-yl)methanone]				0.052 µM	0.06 µM			1.5 µM
Cc1ccc(-c2ncccn2)c(C(=O)N2C3CCC2C(Nc2ccc(C(F)(F)F)cn2)C3)n1 (racemic) [Example 195, (±)-(6-methyl-3-(pyrimidin-2-yl)pyridin-2-yl)(2-(5-(trifluoromethyl)pyridin-2-yl)amino)-7-azabicyclo[2.2.1]heptan-7-yl)methanone]				0.037 µM	0.057 µM			0.325 µM
O=C(c1ccccc1-n1nccn1)N1C2CCC1C(Nc1ccc(C(F)(F)F)cn1)C2 (racemic) [Example 196, (±)-(2-(2H-1,2,3-triazol-2-yl)phenyl)(2-(5-(trifluoromethyl)pyridin-2-yl)amino)-7-azabicyclo[2.2.1]heptan-7-yl)methanone]	1.5 µM			0.061 µM	0.059 µM			
O=C(c1ccccc1-n1nccn1)N1C2CCC1C(Nc1cnc3ccccc3n1)C2 (racemic) [Example 204, (±)-(2-(2H-1,2,3-triazol-2-yl)phenyl)(2-(quinoxalin-2-ylamino)-7-azabicyclo[2.2.1]heptan-7-yl)methanone]				0.025 µM	0.033 µM			0.22 µM
Cc1ccc(-n2nccn2)c(C(=O)N2C3CCC2C(Nc2cnc4ccccc4n2)C3)n1 (racemic) [Example 205, (±)-(6-methyl-3-(2H-1,2,3-triazol-2-yl)pyridin-2-yl)(2-(quinoxalin-2-ylamino)-7-azabicyclo[2.2.1]heptan-7-yl)methanone]				0.05 µM	0.079 µM			0.168 µM
